According to the supplement of paper PMC10307832:

Tests used:
Assay in all cases: relative viability (nuclei count vs DMSO), 5 days (fraction); higher = more cells survive
LXF-289 = system: LXF-289
Method in brief: (§1)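 After 5 days of treatment, lung cancer cells in 1536-well plates were fixed and stained in a single step (final 0.05% Triton X-100, 1% formaldehyde, 1 ug/ml Hoechst) and their nuclei counted on 4× images. Treatment had been applied by pin tool the day after seeding as one drug alone or as a fixed anchor-drug dose with five library-drug doses (not always all listed) in √10 steps. Relative viability is the nuclei count of treated wells divided by that of vehicle wells, and values are medians of duplicate plates.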

NCI-H358 = system: NCI-H358
Method in brief: as §1

NCI-H1651 = system: NCI-H1651
Method in brief: as §1

EMC-BAC-2 = system: EMC-BAC-2
Method in brief: as §1

NCI-H2126 = system: NCI-H2126
Method in brief: as §1

NCI-H1793 = system: NCI-H1793
Method in brief: as §1

EKVX = system: EKVX
Method in brief: as §1

UMC-11 = system: UMC-11
Method in brief: as §1

A-427 = system: A-427
Method in brief: as §1

NCI-H3122 = system: NCI-H3122
Method in brief: as §1

NCI-H2023 = system: NCI-H2023
Method in brief: as §1

NCI-H322M = system: NCI-H322M
Method in brief: as §1

SW 1573 = system: SW 1573
Method in brief: as §1

EPLC-272H = system: EPLC-272H
Method in brief: as §1

BEN = system: BEN
Method in brief: as §1

HCC-44 = system: HCC-44
Method in brief: as §1

NCI-H596 = system: NCI-H596
Method in brief: as §1

LCLC-103H = system: LCLC-103H
Method in brief: as §1

NCI-H2087 = system: NCI-H2087
Method in brief: as §1

NCI-H1650 = system: NCI-H1650
Method in brief: as §1

SK-LU-1 = system: SK-LU-1
Method in brief: as §1

COR-L23 = system: COR-L23
Method in brief: as §1

201T = system: 201T
Method in brief: as §1

`Oc1nc(-c2ccc(C(F)(F)F)cc2)nc2c1CSCC2` [XAV939] + Nc1nc2[nH]cc(CCc3ccc(C(=O)N[C@@H](CCC(=O)O)C(=O)O)cc3)c2c(=O)[nH]1 [Pemetrexed] (partner 0.2 µM) showed a relative viability (LXF-289; first compound 0.08 µM) of 0.886, a relative viability (LXF-289; first compound 0.253 µM) of 0.916 and a relative viability (LXF-289; first compound 0.8 µM) of 0.957. It also gave a relative viability (LXF-289; first compound 2.53 µM) of 0.895, a relative viability (NCI-H358; first compound 0.08 µM) of 0.168 and a relative viability (NCI-H358; first compound 0.253 µM) of 0.162. For the same molecule, the relative viability (NCI-H358; first compound 0.8 µM) was 0.165, the relative viability (NCI-H358; first compound 2.53 µM) was 0.171 and the relative viability (NCI-H1651; first compound 0.08 µM) was 0.576. For the same molecule, the relative viability (NCI-H1651; first compound 0.253 µM) was 0.513, the relative viability (NCI-H1651; first compound 0.8 µM) was 0.545 and the relative viability (NCI-H1651; first compound 2.53 µM) was 0.4. For the same molecule, the relative viability (EMC-BAC-2; first compound 0.08 µM) was 0.454, the relative viability (EMC-BAC-2; first compound 0.253 µM) was 0.399 and the relative viability (EMC-BAC-2; first compound 0.8 µM) was 0.412. For the same molecule, the relative viability (EMC-BAC-2; first compound 2.53 µM) was 0.344, the relative viability (NCI-H2126; first compound 0.08 µM) was 0.671 and the relative viability (NCI-H2126; first compound 0.253 µM) was 0.542. It also gave a relative viability (NCI-H2126; first compound 0.8 µM) of 0.665, a relative viability (NCI-H2126; first compound 2.53 µM) of 0.598 and a relative viability (NCI-H1793; first compound 0.08 µM) of 1.08. For the same molecule, the relative viability (NCI-H1793; first compound 0.253 µM) was 0.797, the relative viability (NCI-H1793; first compound 0.8 µM) was 0.936 and the relative viability (NCI-H1793; first compound 2.53 µM) was 0.678. The relative viability (EKVX; first compound 0.08 µM) was 0.443, the relative viability (EKVX; first compound 0.253 µM) was 0.326 and the relative viability (EKVX; first compound 0.8 µM) was 0.266. It also gave a relative viability (EKVX; first compound 2.53 µM) of 0.303, a relative viability (UMC-11; first compound 0.08 µM) of 0.893 and a relative viability (UMC-11; first compound 0.253 µM) of 0.635. The relative viability (UMC-11; first compound 0.8 µM) was 0.731, the relative viability (UMC-11; first compound 2.53 µM) was 0.636 and the relative viability (A-427; first compound 0.08 µM) was 0.613. The relative viability (A-427; first compound 0.253 µM) was 0.953, the relative viability (A-427; first compound 0.8 µM) was 0.962 and the relative viability (A-427; first compound 2.53 µM) was 0.837. The relative viability (NCI-H3122; first compound 0.08 µM) was 0.211, the relative viability (NCI-H3122; first compound 0.253 µM) was 0.19 and the relative viability (NCI-H3122; first compound 0.8 µM) was 0.198. The relative viability (NCI-H3122; first compound 2.53 µM) was 0.178, the relative viability (NCI-H2023; first compound 0.08 µM) was 0.279 and the relative viability (NCI-H2023; first compound 0.253 µM) was 0.197. For the same molecule, the relative viability (NCI-H2023; first compound 0.8 µM) was 0.208, the relative viability (NCI-H2023; first compound 2.53 µM) was 0.199 and the relative viability (NCI-H322M; first compound 0.08 µM) was 0.585. It also gave a relative viability (NCI-H322M; first compound 0.253 µM) of 0.561, a relative viability (NCI-H322M; first compound 0.8 µM) of 0.548 and a relative viability (NCI-H322M; first compound 2.53 µM) of 0.512. The relative viability (SW 1573; first compound 0.08 µM) was 0.876, the relative viability (SW 1573; first compound 0.253 µM) was 0.659 and the relative viability (SW 1573; first compound 0.8 µM) was 0.816. It also gave a relative viability (SW 1573; first compound 2.53 µM) of 0.731, a relative viability (EPLC-272H; first compound 0.08 µM) of 0.312 and a relative viability (EPLC-272H; first compound 0.253 µM) of 0.238. It also gave a relative viability (EPLC-272H; first compound 0.8 µM) of 0.511, a relative viability (EPLC-272H; first compound 2.53 µM) of 0.308 and a relative viability (BEN; first compound 0.08 µM) of 0.651. It also gave a relative viability (BEN; first compound 0.253 µM) of 0.727, a relative viability (BEN; first compound 0.8 µM) of 0.817 and a relative viability (BEN; first compound 2.53 µM) of 0.731. The relative viability (HCC-44; first compound 0.08 µM) was 0.614, the relative viability (HCC-44; first compound 0.253 µM) was 0.59 and the relative viability (HCC-44; first compound 0.8 µM) was 0.636. For the same molecule, the relative viability (HCC-44; first compound 2.53 µM) was 0.616, the relative viability (NCI-H596; first compound 0.08 µM) was 0.544 and the relative viability (NCI-H596; first compound 0.253 µM) was 0.488. For the same molecule, the relative viability (NCI-H596; first compound 0.8 µM) was 0.588, the relative viability (NCI-H596; first compound 2.53 µM) was 0.435 and the relative viability (LCLC-103H; first compound 0.08 µM) was 0.448. The relative viability (LCLC-103H; first compound 0.253 µM) was 0.405, the relative viability (LCLC-103H; first compound 0.8 µM) was 0.519 and the relative viability (LCLC-103H; first compound 2.53 µM) was 0.472. The relative viability (NCI-H2087; first compound 0.08 µM) was 0.706, the relative viability (NCI-H2087; first compound 0.253 µM) was 0.636 and the relative viability (NCI-H2087; first compound 0.8 µM) was 0.64. The relative viability (NCI-H2087; first compound 2.53 µM) was 0.552, the relative viability (NCI-H1650; first compound 0.08 µM) was 0.368 and the relative viability (NCI-H1650; first compound 0.253 µM) was 0.301. For the same molecule, the relative viability (NCI-H1650; first compound 0.8 µM) was 0.356, the relative viability (NCI-H1650; first compound 2.53 µM) was 0.365 and the relative viability (SK-LU-1; first compound 0.08 µM) was 1.05. The relative viability (SK-LU-1; first compound 0.253 µM) was 1, the relative viability (SK-LU-1; first compound 0.8 µM) was 1.1 and the relative viability (SK-LU-1; first compound 2.53 µM) was 0.947. For the same molecule, the relative viability (COR-L23; first compound 0.08 µM) was 0.205, the relative viability (COR-L23; first compound 0.253 µM) was 0.186 and the relative viability (COR-L23; first compound 0.8 µM) was 0.203. For the same molecule, the relative viability (COR-L23; first compound 2.53 µM) was 0.206, the relative viability (201T; first compound 0.08 µM) was 0.359 and the relative viability (201T; first compound 0.253 µM) was 0.338. It also gave a relative viability (201T; first compound 0.8 µM) of 0.374 and a relative viability (201T; first compound 2.53 µM) of 0.288.
